Assay results published in paper PMC3914206.

What was measured:
Type in all cases: binding
Conditions in all cases: Compound Concentration 10 µM
panel of 442 kinases [1] = target: T1, panel of 442 kinases (Homo sapiens, UniProt P06213)
T1 construct: purchased KINOMEscan
From the text: (§1) We assessed the selectivity of members of this scaffold using the KINOMEscan methodology across a near comprehensive panel of 442 kinases [[18,27]].

panel of 442 kinases [2] = target: T2, panel of 442 kinases (Homo sapiens, UniProt P51955)
T2 construct: purchased KINOMEscan
T2 sequence (P51955 1-445): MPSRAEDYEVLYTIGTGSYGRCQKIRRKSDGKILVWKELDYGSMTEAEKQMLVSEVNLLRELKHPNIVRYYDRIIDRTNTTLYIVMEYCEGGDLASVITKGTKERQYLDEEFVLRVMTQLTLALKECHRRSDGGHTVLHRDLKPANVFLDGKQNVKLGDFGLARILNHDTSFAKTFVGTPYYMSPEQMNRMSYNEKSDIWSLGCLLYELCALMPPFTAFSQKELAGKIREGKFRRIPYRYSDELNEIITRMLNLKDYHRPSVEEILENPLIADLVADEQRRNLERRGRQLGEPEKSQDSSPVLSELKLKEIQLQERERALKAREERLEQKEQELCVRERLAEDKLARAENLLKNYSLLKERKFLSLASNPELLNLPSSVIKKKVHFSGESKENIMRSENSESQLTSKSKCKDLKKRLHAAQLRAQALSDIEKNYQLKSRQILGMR
From the text: as §1

panel of 442 kinases [3] = target: T3, panel of 442 kinases (Homo sapiens, UniProt Q8TDX7)
T3 construct: purchased KINOMEscan
T3 sequence (Q8TDX7 whole entry): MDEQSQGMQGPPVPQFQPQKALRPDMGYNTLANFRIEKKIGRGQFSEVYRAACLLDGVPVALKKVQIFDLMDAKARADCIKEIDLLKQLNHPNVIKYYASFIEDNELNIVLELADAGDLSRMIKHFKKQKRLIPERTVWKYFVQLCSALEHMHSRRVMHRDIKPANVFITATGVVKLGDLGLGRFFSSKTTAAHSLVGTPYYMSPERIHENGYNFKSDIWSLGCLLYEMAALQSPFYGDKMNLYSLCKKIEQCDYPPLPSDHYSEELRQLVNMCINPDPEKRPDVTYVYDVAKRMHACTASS
From the text: as §1

T1 sequence (P06213 28-1382): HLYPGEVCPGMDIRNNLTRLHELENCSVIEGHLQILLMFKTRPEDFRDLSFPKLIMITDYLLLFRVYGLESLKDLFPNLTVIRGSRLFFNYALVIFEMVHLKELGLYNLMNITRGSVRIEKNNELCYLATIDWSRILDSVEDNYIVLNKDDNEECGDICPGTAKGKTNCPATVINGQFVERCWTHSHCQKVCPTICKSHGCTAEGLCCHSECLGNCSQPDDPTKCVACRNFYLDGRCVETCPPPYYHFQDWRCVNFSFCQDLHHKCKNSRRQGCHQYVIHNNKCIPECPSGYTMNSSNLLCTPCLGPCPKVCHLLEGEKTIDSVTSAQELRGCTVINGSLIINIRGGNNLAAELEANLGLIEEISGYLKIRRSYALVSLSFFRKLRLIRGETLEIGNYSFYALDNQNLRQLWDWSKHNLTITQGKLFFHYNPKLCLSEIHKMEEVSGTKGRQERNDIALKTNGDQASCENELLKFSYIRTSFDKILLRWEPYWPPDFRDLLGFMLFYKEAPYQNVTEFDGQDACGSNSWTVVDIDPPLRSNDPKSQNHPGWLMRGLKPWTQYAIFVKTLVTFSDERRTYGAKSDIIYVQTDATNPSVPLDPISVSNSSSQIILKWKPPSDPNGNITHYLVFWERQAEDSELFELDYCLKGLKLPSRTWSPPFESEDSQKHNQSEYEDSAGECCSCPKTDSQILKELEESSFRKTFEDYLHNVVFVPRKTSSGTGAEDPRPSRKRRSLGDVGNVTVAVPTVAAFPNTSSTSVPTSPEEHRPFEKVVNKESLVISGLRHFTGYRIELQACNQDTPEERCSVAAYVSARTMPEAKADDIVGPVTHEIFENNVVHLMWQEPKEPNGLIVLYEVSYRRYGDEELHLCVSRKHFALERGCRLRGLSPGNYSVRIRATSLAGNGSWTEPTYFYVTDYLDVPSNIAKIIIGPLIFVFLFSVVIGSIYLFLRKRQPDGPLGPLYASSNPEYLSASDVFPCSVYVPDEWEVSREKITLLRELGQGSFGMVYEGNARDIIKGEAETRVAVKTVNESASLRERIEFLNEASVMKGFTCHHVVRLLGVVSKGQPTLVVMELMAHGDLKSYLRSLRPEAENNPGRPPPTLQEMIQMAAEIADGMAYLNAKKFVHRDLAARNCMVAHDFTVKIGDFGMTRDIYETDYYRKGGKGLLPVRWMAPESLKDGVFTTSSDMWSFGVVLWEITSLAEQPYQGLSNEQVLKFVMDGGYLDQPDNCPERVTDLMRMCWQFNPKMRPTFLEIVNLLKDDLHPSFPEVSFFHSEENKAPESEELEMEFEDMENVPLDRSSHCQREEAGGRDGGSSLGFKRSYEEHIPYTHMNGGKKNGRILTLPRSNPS

## CCOc1cc(C(=O)N2CCC(N3CCN(C)CC3)CC2)ccc1Nc1ncc2c(n1)N(C1CCCC1)c1ccccc1C(=O)N2C [Compound 26]
Panel of 442 kinases [1]
  KINOMEscan: INSR: 100
Panel of 442 kinases [2]
  KINOMEscan: NEK2: 86
Panel of 442 kinases [3]
  KINOMEscan: NEK7: 100

## COc1cc(C(=O)N2CCC(N3CCN(C)CC3)CC2)ccc1Nc1ncc2c(n1)N1CCc3cccc(c31)C(=O)N2C [Compound 24]
Panel of 442 kinases [1]
  KINOMEscan: INSR: 78
Panel of 442 kinases [2]
  KINOMEscan: NEK2: 62

## COc1cc(C(=O)N2CCC(N3CCN(C)CC3)CC2)ccc1Nc1ncc2c(n1)N(C)c1ccccc1C(=O)N2C [15 (LRRK2-IN-1)]
Panel of 442 kinases [1]
  KINOMEscan: INSR: 84
Panel of 442 kinases [2]
  KINOMEscan: NEK2: 100
Panel of 442 kinases [3]
  KINOMEscan: NEK7: 100

## COc1cc(C(=O)N2CCC(N3CCN(C)CC3)CC2)ccc1Nc1ncc2c(n1)N(C1CCCC1)c1ccccc1C(=O)N2C [Compound 25, 11-cyclopentyl-2-((2-methoxy-4-(4-(4-methylpiperazin-1-yl)piperidine-1-carbonyl)phenyl)amino)-5-methyl-5H-benzo[e]pyrimido[5,4-b][1,4]diazepin-6(11H)-one]
Panel of 442 kinases [1]
  KINOMEscan: INSR: 88
Panel of 442 kinases [2]
  KINOMEscan: NEK2: 88
Panel of 442 kinases [3]
  KINOMEscan: NEK7: 100
